In patent US11497713B2, “Combination taxoid nanoemulsion with immunotherapy in cancer” (TargaGenix, Inc., priority 2017, dated 2022):

Tests used:
PDAC = details: cited from earlier work
[1] = tested on: human CFPAC-1 pancreatic tumor xenograft; assay: Human CFPAC-1 pancreatic tumor xenograft efficacy (FIG. 2); assay type: in vivo, mice; details: for efficacy as compared to vehicles: CFPAC-1 xenograft
[2] = tested on: highly drug resistant tumor xenografts; assay: Highly drug resistant tumor xenografts in mice; details: mouse, in vivo
Panc02 cells = assay: Cell viability (MTT assay) in Panc02 cells; assay type: cell-based, murine; details: Mus musculus, 96 hours of drug exposure
Experimental: The murine pancreatic cancer cell line Panc02, which is syngeneic to C57Bl/6 mice was a kind gift from Professor Michael A. Hollingsworth, UNMC, Omaha, Nebr. Panc02 cells were grown in 75 cm^2 cell culture flasks and maintained in DMEM medium supplemented with 10% fetal bovine serum (FBS), L-glutamine and penicillin (100 U/ml)/streptomycin (100 μg/ml) (both from Gibco Life Technologies, Carlsbad, Calif., USA). Cells were incubated at 37° C. in a humidified atmosphere containing 5% CO2.
To see cytotoxic effect of different drugs and nanoemulsion formulation, 5000 cells were seeded in each well of the 96-well plate for overnight at 37° C. in a humidified atmosphere containing 5% CO2. Various drugs (Paclitaxel, Abraxane, Gemcitabine and solution and nanoemulsion of DHA-SBT-1214) were diluted at concentrations ranging from 0 nM, 0.01 nM, 0.1 nM, 1 nM, 10 nM, 100 nM, 1000 nM to 10000 nM and Panc02 cells treated with these concentrations for 96 hours. After incubation, cells were treated with 3-(4,5-dimethylthiazol-2-yl)-2,5-diphenyltetrazolium bromide ([…]). MU crystals were dissolved with DMSO and plates were read at 570 nm absorbance using a BioTek Synergy HTX Multi-Mode Microplate Reader.
Cells were seeded at 0.5×10^6 cells/well in 6-well plates for overnight at 37 C in a humidified atmosphere containing 5% CO2. […] The percentage maximal response is shown as a function of anti-cancer agents when administered to Panc02 cells. The cell viability was measured by the MTT assay after 96 hours of incubation at 37° C. Data represent mean±standard deviation (n=3). Significant differences are indicated as follows: *p<0.05, and **p<0.01. The expression level of PD-L1 was determined using flow cytometry as follows. […] The cells were washed once with 3% BSA/PBS and analyzed by flow cytometer on a FACSCalibur flow cytometer and CellQuest™ Pro version 6.0 software (both from Becton-Dickinson and Co.). […]

[3] = tested on: human PANC-1 pancreatic tumor xenograft; assay: Human PANC-1 pancreatic tumor xenograft, schedule comparison (FIG. 3); assay type: in vivo, RPCI SCID mice
Description: In FIG. 3, this experiment compared a q7d×3 with a q3d×3 schedule for paclitaxel and DHA-SBT-1214 using a human PANC-1 pancreatic tumor xenograft in RPCI SCID mice. […] Paclitaxel was only weakly effective, showing tumor growth delays of 18 days with q7d×3 schedule and 13 days with q3d×3 schedule and no CRs.

[4] = tested on: patient-derived PPT2 prostate cancer stem cell xenograft; assay: Patient-derived prostate cancer stem cell (PPT2) xenograft model; assay type: in vivo, mice; details: patient-derived prostate CSC xenograft
[5] = tested on: PD-L1 surface expression in Panc02 cells; assay: PD-L1 surface protein expression by flow cytometry; assay type: cell-based, murine; details: IC50 concentration, 48 hours
Experimental: Cells were seeded at 0.5×10^6 cells/well in 6-well plates for overnight at 37 C in a humidified atmosphere containing 5% CO2. […] The percentage maximal response is shown as a function of anti-cancer agents when administered to Panc02 cells. The cell viability was measured by the MTT assay after 96 hours of incubation at 37° C. Data represent mean±standard deviation (n=3). Significant differences are indicated as follows: *p<0.05, and **p<0.01. The expression level of PD-L1 was determined using flow cytometry as follows. Briefly, cells harvested from in vitro cultures were washed twice with 3% BSA/PBS and then incubated with rat anti-PD-L1 or isotype control antibodies ([…], BioXcell, West Lebanon, N.H., USA) for 30 minutes at 4 C, then washed three times and incubated with anti-rat AlexaFluor 488 conjugated Antibody. The cells were washed once with 3% BSA/PBS and analyzed by flow cytometer on a FACSCalibur flow cytometer and CellQuest™ Pro version 6.0 software (both from Becton-Dickinson and Co.).
Panc02 cells were treated with gemcitabine, Abraxane™, paclitaxel and DHA-SBT-1214 both in solution and nanoemulsion for 48 hours to determine whether they can induce PD-L1 protein expression. PD-L1 expression levels on tumor cells were determined by flow cytometry and is expressed as the A mean fluorescence intensity (ΔMFI; MFI using anti-PD-L1 subtracted from the isotype control). […] PD-L1 expression was analyzed using flow cytometry and is presented as ΔMFI (MFI using anti-PD-L1 subtracted from the isotype control). Data represent the mean±standard deviation of at least 3 independent experiments; *p<0.05, **p<0.01, ***p<0.001. As reported previously, PD-L1 level enhanced in pancreatic tumor tissues compared to in vitro growing cells as shown in FIG. 8.

Compound: O=c1[nH]cc(F)c(=O)[nH]1 [5-FU, 5-flurouracil]
- median overall survival (PDAC; randomized Phase III trial, gemcitabine versus 5-FU): 4.41 months

Compound: CC(=O)O[C@@]12CO[C@@H]1C[C@H](O)[C@@]1(C)C(=O)[C@H](OC(=O)C3CC3)C3=C(C)[C@@H](OC(=O)[C@H](O)[C@H](C=C(C)C)NC(=O)OC(C)(C)C)C[C@@](O)([C@@H](OC(=O)c4ccccc4)[C@H]21)C3(C)C [SBT-1214]
- weight loss ([1]; 120 mg/kg total dose, until day 20): < 4%

Compound: CC/C=C\C/C=C\C/C=C\C/C=C\C/C=C\C/C=C/CCC(=O)O[C@@H](C(=O)O[C@H]1C[C@@]2(O)[C@@H](OC(=O)c3ccccc3)C3[C@](C)(C(=O)[C@H](OC(C)=O)C(=C1C)C2(C)C)[C@@H](O)C[C@H]1OC[C@@]31OC(C)=O)[C@@H](NC(=O)c1ccccc1)c1ccccc1 (stereo partly shown) [DHA-paclitaxel]
- efficacy as compared to vehicles [1]: only minor tumor growth delay
- efficacy [2]: do not show meaningful activity

Compound: FOLFIRINOX
- median survival (PDAC; Phase III clinical trial of FOLFIRINOX): 11.1 months

Compound: CC(=O)O[C@H]1C(=O)[C@@]2(C)[C@H]([C@H](OC(=O)c3ccccc3)[C@]3(O)C[C@H](OC(=O)[C@H](O)[C@@H](NC(=O)c4ccccc4)c4ccccc4)C(C)=C1C3(C)C)[C@]1(OC(C)=O)CO[C@@H]1C[C@@H]2O [paclitaxel, reference compound]
- IC50 (Panc02 cells): 0.443 µM
- efficacy as compared to vehicles [1]: only minor tumor growth delay
- complete responses (CRs) ([3]; PANC-1 xenograft): no CRs
- tumor growth delay ([3]; q3d×3 schedule): 13 days
- tumor growth delay ([3]; q7d×3 schedule): 18 days
- efficacy (tumor growth, survival) [4]: completely ineffective
- PD-L1 surface expression (ΔMFI) [5]: upregulated
- efficacy [2]: do not show meaningful activity
